Measured values taken from patent publication US9023384B2, “Liposome and method for injecting substance to cell using this liposome” (Tokyo Medical and Dental University, priority 2004, dated 2015).

Assays:
[1] = system: COX-2 mRNA in U2OS cells carrying expressed Cx43; experiment: COX-2 expression by RT-PCR after IL-1 stimulation; type: cell-based
Procedure: (§1) Specifically, the U2OS cells used in Example 2 was initially cultured until 80 to 90% density in a 10-cm culture dish, on which a liposome containing the NBD peptide was then allowed to act for 12 hours. In this example, the liposome used was constructed in the same way as in Example 1 except that a solution used contained 50 μL of the NBD peptide.
In FIG. 8, “Cx-U2OS” denotes a result obtained using a liposome having connexon, and “U2OS” denotes a result obtained using a liposome having no connexon. […] Moreover, the suppression of COX-2 expression was not confirmed in the administration of NBD alone, the administration of NBD using the liposome having no Cx43 expression, administration after pretreatment with GA, and the administration of mutant NBD. Furthermore, the NBD effect was not confirmed on U2OS having no Cx43 expression.

[2] = system: NFκB activity in U2OS cells carrying expressed Cx43; experiment: NF-kB reporter gene assay (intracellular luciferase activity) after IL-1β stimulation; type: cell-based
Source text: As schematically shown in FIG. 6, an IKK complex is activated by IL-1β stimulation or the like and thereby phosphorylates IκB. The phosphorylated IκB is further polyubiquitinated and degraded by a pathway in a proteasome system. As a result, the suppressive effect of IκB on NFκB (p50+p65) disappears. The nuclear-imported NFκB increases the transcriptional activity of a gene of interest. A NEMO Binding Domain ((SEQ ID NO:3); hereinafter, NBD) is known to be a sequence present in the C-terminus of IKKβ, one component in the IKK complex, and be necessary for binding with IKKγ (NEMO). The solubilized NBD oligopeptide originally suppresses normal IKK functions through its competitive inhibition of the binding of IKKβ with NEMO and thereby suppresses the nuclear import of NFκB and the transcription of a gene of interest. […] Thus, in this example, a liposome having connexon consisting of Cx43 was used to attempt the administration of the NBD peptide into cells via a gap junction.
as §1, with “peptide. […]” for “peptide.”

Compound	suppression of COX-2 expression by NBD administration after pretreatment with GA ([1]; pretreatment with GA)	effect of pretreatment with gap junction inhibitor on the NBD effect on NFκB activity ([2]; pretreatment before NBD administration using Cx43-expressing liposome)	suppression of IL-1 stimulation-induced rises in COX-2 expression ([1]; cells carrying expressed Cx43)	suppression of IL-1β stimulation-induced rises in NFκB activity ([2]; liposome for 12 hours, then IL-1β for 24 hours, cells carrying expressed Cx43)
CC1(C)[C@@H](O)CC[C@]2(C)[C@H]3C(=O)C=C4[C@@H]5C[C@@](C)(C(=O)O)CC[C@]5(C)CC[C@@]4(C)[C@]3(C)CC[C@@H]12 [18β-glycyrrhetinic acid]	not confirmed	suppressed the NBD effect	–	–
NBD peptide: NEMO Binding Domain oligopeptide (SEQ ID NO:3), administered without liposome (TALDWSWLQTE; listed as Homo sapiens)	–	–	not confirmed	not confirmed
